In US4444981A, “10 Oxo-4,5-dihydro-10H-benzo 5,6 cycloheph[1,2-B]pyrryls” (Beecham Group Limited, priority 1979, dated 1984):

What was measured:
[1] = Carrageenin test (anti-inflammatory activity); type: in vivo; conditions: * significantly active
Text: (§1) The compounds were examined for Anti-Inflammatory Activity in two conventional tests, the Cotton Pellet Granuloma test and the Carrageenin test.

[2] = Cotton Pellet Granuloma test (anti-inflammatory activity); type: in vivo; conditions: * significantly active
Text: as §1

[3] = phenyl quinone writhing test (analgesic activity); type: in vivo
Text: The compounds were also examined for Analgesic Activity in the conventional phenyl quinone writhing test.

SMILES: CC(O)CCc1cc2c(n1C)C(=O)c1ccccc1CC2 (centres unmarked) [Example 5, 4-(4,5-Dihydro-10H-1-methyl-10-oxo-benzo[5,6]cyclohepta[1,2-b]-2-pyrryl)butan-2-ol]
- Carrageenin % Inhibition ([1]; 45 mg/kg): 25%

SMILES: Cn1c(CC(=O)O)cc2c1C(=O)c1ccc(F)cc1CC2 [Example 8, 4,5-Dihydro-7-fluoro-10H-1-methyl-10-oxobenzo[5,6]cyclohepta[1,2-b]pyrrole-2-acetic acid]
- Cotton Pellet % Inhibition ([2]; 10 mg/kg): 31%

SMILES: CC(=O)OC(C)CCc1cc2c(n1C)C(=O)c1ccccc1CC2 (centres unmarked) [Example 6, 2-Acetoxy-4-(4,5-dihydro-10H-1-methyl-10-oxo-benzo[5,6]cyclohept[1,2-b]-2-pyrryl)butane]
- Carrageenin % Inhibition ([1]; 15 mg/kg): 17%
- Carrageenin % Inhibition ([1]; 45 mg/kg): 19%

SMILES: Cn1c(CC(=O)O)cc2c1C(=O)c1ccc(Cl)cc1CC2 [Example 7, 7-Chloro-4,5-dihydro-10H-1-methyl-10-oxobenzo[5,6]cyclohepta[1,2-b]pyrrole-2-acetic acid]
- Cotton Pellet % Inhibition ([2]; 25 mg/kg): 49%
- Carrageenin % Inhibition ([1]; 25 mg/kg): 25%

SMILES: Cn1c(CC(=O)O)cc2c1C(=O)c1ccccc1CC2 [Example 2, 4,5-Dihydro-10H-1-methyl-10-oxobenzo[5,6]-cyclohepta[1,2-b]pyrrole-2-aceticacid]
- Cotton Pellet % Inhibition ([2]; 10 mg/kg): 28%
- Carrageenin % Inhibition ([1]; 15 mg/kg): 25%
- Carrageenin % Inhibition ([1]; 45 mg/kg): 30%
- ED50 [3]: 2.4 mg/kg

SMILES: Cc1ccc2c(c1)CCc1cc(CC(=O)O)n(C)c1C2=O [Example 1, 4,5-Dihydro-1,7-dimethyl-10H-10-oxo-benzo[5,6]cyclohepta[1,2-b]pyrrole-2-acetic acid]
- Cotton Pellet % Inhibition ([2]; 25 mg/kg): 34%
- Carrageenin % Inhibition ([1]; 5 mg/kg): 21%
- Carrageenin % Inhibition ([1]; 25 mg/kg): 44%
- ED50 [3]: 5.1 mg/kg
- TD50 (in vivo): 95 mg/kg

SMILES: CC(=O)CCc1cc2c(n1C)C(=O)c1ccccc1CC2 [Example 4, 4-(4,5-Dihydro-10H-1-methyl-10-oxo-benzo[5,6]cyclohepta[1,2-b]-2-pyrryl)butan-2-one]
- Carrageenin % Inhibition ([1]; 15 mg/kg): 17%
- Carrageenin % Inhibition ([1]; 45 mg/kg): 20%
